According to US20250026769A1, “PAPD5 INHIBITORS AND METHODS OF USE THEREOF” (The Children's Medical Center Corporation, priority 2021, published 2025):
Like-named read-outs stand apart in the source and are kept apart here.

Assays:
[1] = molecular target: T1, rPAPD5 (Homo sapiens, UniProt Q8NDF8); assay: differential scanning fluorimetry (DSF) binding and stabilization of rPAPD5; settings: for ΔTm at 100 µM: read-out: ΔTm at 100 μM; for ΔTm at 1 µM: read-out: ΔTm at 1 μM
T1 construct: made in house
T1 sequence (Q8NDF8 68-698 isoform Q8NDF8-5 limits assumed): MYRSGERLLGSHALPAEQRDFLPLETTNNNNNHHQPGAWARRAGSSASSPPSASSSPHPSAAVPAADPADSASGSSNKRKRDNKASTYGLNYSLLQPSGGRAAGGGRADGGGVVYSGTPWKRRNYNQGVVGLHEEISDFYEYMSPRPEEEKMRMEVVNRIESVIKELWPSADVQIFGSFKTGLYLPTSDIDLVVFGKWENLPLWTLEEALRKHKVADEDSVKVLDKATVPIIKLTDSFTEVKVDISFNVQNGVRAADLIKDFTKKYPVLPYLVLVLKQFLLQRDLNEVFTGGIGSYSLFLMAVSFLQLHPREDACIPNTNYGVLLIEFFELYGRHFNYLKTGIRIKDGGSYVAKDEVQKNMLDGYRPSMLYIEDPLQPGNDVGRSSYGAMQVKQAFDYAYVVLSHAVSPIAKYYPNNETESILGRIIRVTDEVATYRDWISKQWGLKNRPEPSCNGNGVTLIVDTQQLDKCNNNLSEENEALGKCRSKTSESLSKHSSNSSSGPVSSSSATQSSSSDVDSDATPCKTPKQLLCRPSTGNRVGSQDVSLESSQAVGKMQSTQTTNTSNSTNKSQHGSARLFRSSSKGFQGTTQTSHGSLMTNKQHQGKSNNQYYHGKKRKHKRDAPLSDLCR
Procedure, shortened: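 Compound-induced shifts in rPAPD5 melting temperature were determined by thermal shift (DSF). Protein at […] was mixed with a non-extendable ATP analog […] in Tris-HCl (25 mM), MgCl2 (5 mM) and KCl (50 mM), with SYPRO orange at 1:5000. Curves were averages of three measurements analyzed with Thermal Shift software, and ΔTm was referenced to DMSO.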

[2] = test system: TERC 3′ end processing in DC patient iPSCs; assay: TERC 3′ end processing by RACE in DC patient / PARN-mutant iPSCs; assay type: cell-based, human; settings: Homo sapiens, iPSC, read-out: iPSC-based RACE activity
Experimental: Compound 266A had activity ˜2-logs higher in the in vitro RNA oligoadenylation assay compared to the parental compound cmpd. 1, approximating the activity of RG7834 (FIG. 7). […] 1. Compounds 295A and 296A had activity 2-3 logs higher in DC patient iPSCs, showing TERC maturation at 1 nM, similar to RG7834 (FIG. 6). […] Referring to Table 1D, “+” refers to activity at 1 μM, “++” refers to activity above 1 nM and below 1 μM, and “+++” refers to activity at <1 nM, “ND” refers to not determined.

[3] = 100 μM test compound, shift vs DMSO control
[4] = patient iPSCs, concentration class at which activity is seen
[5] = 10 μM test compound (Table 2a), read-out: ΔTm at 10 μM

SMILES	ΔTm at 100 µM [1, 3]	ΔTm at 1 µM ([1]; 1 μM test compound (Table 2a))	ΔTm at 10 µM [1, 5]	also measured
NS(=O)(=O)c1ccc(Nc2c(S(=O)(=O)N3CCOCC3)cnc3ccc(Cl)cc23)c(C(=O)O)c1 [Compound 290A, 2-[(6-chloro-3-morpholinosulfonyl-4-quinolyl)amino]-5-sulfamoyl-benzoic acid]	< 1 °C	–	–	–
O=S(=O)(c1cnc2ccc(Cl)cc2c1Nc1ccccc1B(O)O)N1CCOCC1 [Compound 292A, [2-[(6-chloro-3-morpholinosulfonyl-4-quinolyl)amino]phenyl]boronic acid]	1 to 5 °C	–	–	–
O=C(O)c1cc(C(O)C(F)(F)F)ccc1Nc1c(S(=O)(=O)N2CCOCC2)cnc2ccc(Cl)cc12 (stereo not drawn) [Compound 293A, 2-[(6-chloro-3-morpholinosulfonyl-4-quinolyl)amino]-5-(2,2,2-trifluoro-1-hydroxy-ethyl)benzoic acid]	1 to 5 °C	–	–	–
O=C(O)c1ccccc1Nc1c(C2=CCSCC2)cnc2ccc(Cl)cc12 [Compound 299A, 2-[[6-chloro-3-(3,6-dihydro-2H-thiopyran-4-yl)-4-quinolyl]amino]benzoic acid]	> 5 °C	–	–	–
O=C(O)c1cc(F)ccc1Nc1c(-c2ncco2)cnc2ccc(Cl)cc12 [Compound 300A, 2-[(6-chloro-3-oxazol-2-yl-4-quinolyl)amino]-5-fluoro-benzoic acid]	> 5 °C	–	–	–
COc1ccc(Nc2c(-c3ncco3)cnc3ccc(Cl)cc23)c(C(=O)O)c1 [Compound 302A, 2-[(6-chloro-3-oxazol-2-yl-4-quinolyl)amino]-5-methoxy-benzoic acid]	> 5 °C	–	–	–
O=C(O)c1cc(F)ccc1Nc1c(C2=CCOCC2)cnc2ccc(Cl)cc12 [Compound 304A, 2-[[6-chloro-3-(3,6-dihydro-2H-pyran-4-yl)-4-quinolyl]amino]-5-fluoro-benzoic acid]	> 5 °C	–	–	–
COc1ccc(Nc2c(C3=CCOCC3)cnc3ccc(Cl)cc23)c(C(=O)O)c1 [Compound 308A, 2-[[6-chloro-3-(3,6-dihydro-2H-pyran-4-yl)-4-quinolyl]amino]-5-methoxy-benzoic acid]	> 5 °C	–	–	–
CCc1ccc(Nc2c(S(=O)(=O)N3CCOCC3)cnc3ccc(Cl)cc23)c(C(=O)O)c1 [Compound 318A, 2-[(6-chloro-3-morpholinosulfony 1-4-quinolyl)amino]-5-ethyl-benzoic acid]	> 5 °C	–	–	–
CCCc1ccc(Nc2c(S(=O)(=O)N3CCOCC3)cnc3ccc(Cl)cc23)c(C(=O)O)c1 [Compound 319A, 2-[(6-chloro-3-morpholinosulfonyl-4-quinolyl)amino]-5-propyl-benzoic acid]	1 to 5 °C	–	–	–
CC(C)c1ccc(Nc2c(S(=O)(=O)N3CCOCC3)cnc3ccc(Cl)cc23)c(C(=O)O)c1 [Compound 320A, 2-[(6-chloro-3-morpholinosulfonyl-4-quinolyl)amino]-5-isopropyl-benzoic acid]	1 to 5 °C	–	–	–
O=C(O)c1ccccc1Nc1c(S(=O)(=O)N2CCOCC2)cnc2ccc(B(O)O)cc12 [Compound 321A, 2-[(6-borono-3-morpholinosulfonyl-4-quinolyl)amino]benzoic acid]	< 1 °C	–	–	–
O=C(O)c1ccccc1Nc1c(S(=O)(=O)N2CCOCC2)cnc2ccc(O)cc12 [Compound 322A, 2-[(6-hydroxy-3-morpholinosulfonyl-4-quinolyl)amino]benzoic acid]	> 5 °C	–	–	–
O=C(O)c1ccccc1Nc1c(C2CCS(=O)(=O)CC2)c[n+]([O-])c2ccc(Cl)cc12 [Compound 323A, 2-[[6-chloro-3-(1,1-dioxothian-4-yl)-1-oxido-quinolin-1-ium-4-yl]amino]benzoic acid]	> 5 °C	–	–	–
O=C(O)c1c(Nc2c(S(=O)(=O)N3CCOCC3)cnc3ccc(Cl)cc23)ccc(Cl)c1O [Compound 324A, 3-chloro-6-[(6-chloro-3-morpholinosulfonyl-4-quinolyl)amino]-2-hydroxy-benzoic acid]	> 5 °C	–	–	–
O=C(O)c1ccccc1Sc1c(S(=O)(=O)N2CCOCC2)cnc2ccc(Cl)cc12 [Compound 328A]	–	–	–	ΔTm at 100 µM [1]: 1 to 5 °C

SMILES	ΔTm at 100 µM [1, 3]	ΔTm at 1 µM ([1]; 1 μM test compound (Table 2a))	ΔTm at 10 µM [1, 5]	also measured
O=C(O)c1cc(Cl)ccc1Sc1c(S(=O)(=O)N2CCOCC2)cnc2ccc(Cl)cc12 [Compound 330A, 5-chloro-2-[(6-chloro-3-morpholinosulfonyl-4-quinolyl)sulfanyl]benzoic acid]	> 5 °C	–	–	–
N#Cc1ccc(Nc2c(S(=O)(=O)N3CCOCC3)cnc3ccc(Cl)cc23)c(C(=O)O)c1 [Compound 338A, 2-[(6-chloro-3-morpholinosulfonyl-4-quinolyl)amino]-5-cyano-benzoic acid]	> 5 °C	–	–	–
O=C(O)c1cc(Cl)ccc1Nc1c(C2CCNC2)cnc2ccc(Cl)cc12 (stereo not drawn) [Compound 357A, 5-chloro-2-((6-chloro-3-(pyrrolidin-3-yl)quinolin-4-yl)amino)benzoic acid]	> 5 °C	> 5 °C	> 5 °C	minimal effective concentration [2, 4]: 1 µM
O=C(O)c1cc(Cl)ccc1Nc1c(-c2nnn[nH]2)cnc2ccc(Cl)cc12 [Compound 359A, 5-chloro-2-[[6-chloro-3-(1H-tetrazol-5-yl)-4-quinolyl]amino]benzoic acid]	> 5 °C	> 5 °C	> 5 °C	–
O=C(O)c1cc(Cl)ccc1Nc1c(N2CCNCC2)cnc2ccc(Cl)cc12 [Compound 362A, 5-chloro-2-[(6-chloro-3-piperazin-1-yl-4-quinolyl)amino]benzoic acid]	> 5 °C	> 5 °C	> 5 °C	minimal effective concentration [2, 4]: 1 µM
O=C(O)c1cc(Cl)ccc1Nc1c(C2=CCNCC2)cnc2ccc(Cl)cc12 [Compound 368A, 5-chloro-2-[[6-chloro-3-(1,2,3,6-tetrahydropyridin-4-yl)-4-quinolyl]amino]benzoic acid]	> 5 °C	> 5 °C	> 5 °C	minimal effective concentration [2, 4]: 1 µM
O=C(O)c1cc(Cl)ccc1Nc1c(C(=O)N2CCOCC2)cnc2ccc(Cl)cc12 [Compound 372A, 5-chloro-2-[[6-chloro-3-(morpholine-4-carbonyl)-4-quinolyl]amino]benzoic acid]	> 5 °C	> 5 °C	> 5 °C	minimal effective concentration [2, 4]: 1 µM
NC(=O)c1ccc(Nc2c(S(=O)(=O)N3CCOCC3)cnc3ccc(Cl)cc23)c(C(=O)O)c1 [Compound 373A, 5-carbamoyl-2-[(6-chloro-3-morpholinosulfonyl-4-quinolyl)amino]benzoic acid]	–	–	–	ΔTm at 100 µM [1]: 1 to 5 °C
O=C(O)c1cc(Cl)ccc1Nc1c(N2CCC(OC(F)(F)F)CC2)cnc2ccc(Cl)cc12 [Compound 394A, 5-chloro-2-[[6-chloro-3-[4-(trifluoromethoxy)-1-piperidyl]-4-quinolyl]amino]benzoic acid]	–	> 5 °C	> 5 °C	minimal effective concentration [2, 4]: < 0.001 µM; ΔTm at 10 µM ([1]; 10 μM test compound, shift vs DMSO control, read-out: ΔTm (Table 2, starred: the compound was tested at 10 μM)): > 5 °C
O=C(O)c1ccc(Nc2c(S(=O)(=O)N3CCOCC3)cnc3ccc(Cl)cc23)c(C(=O)O)c1 [Compound 398A, 4-[(6-chloro-3-morpholinosulfonyl-4-quinolyl)amino]benzene-1,3-dicarboxylic acid]	< 1 °C	–	–	–
O=C(O)c1cc(Cl)ccc1Nc1c(C2CCC(F)CC2)cnc2ccc(Cl)cc12 (stereo not drawn) [Compound 400A, 5-chloro-2-[[6-chloro-3-(4-fluorocyclohexyl)-4-quinolyl]amino]benzoic acid]	–	–	–	minimal effective concentration [2]: < 0.001 µM; ΔTm at 10 µM ([1]; read-out: ΔTm (Table 2, starred: the compound was tested at 10 μM)): > 5 °C; ΔTm at 1 µM [1]: > 5 °C; ΔTm at 10 µM ([1]; read-out: ΔTm at 10 μM): > 5 °C
O=C(O)c1cc(Cl)ccc1Nc1c(C2=CCOC2)cnc2ccc(Cl)cc12 [Compound 401A, 5-chloro-2-[[6-chloro-3-(2,5-dihydrofuran-3-yl)-4-quinolyl]amino]benzoic acid]	> 5 °C	> 5 °C	> 5 °C	minimal effective concentration [2, 4]: 1 µM
O=C(O)c1cc(Cl)ccc1Nc1c(C2=CCNC2)cnc2ccc(Cl)cc12 [Compound 402A, 5-chloro-2-((6-chloro-3-(2,5-dihydro-1H-pyrrol-3-yl)quinolin-4-yl)amino)benzoic acid]	> 5 °C	> 5 °C	> 5 °C	minimal effective concentration [2, 4]: 1 µM
O=C1CC=C(c2cnc3ccc(Cl)cc3c2Nc2ccc(Cl)cc2C(=O)O)CC1 [Compound 403A, 5-chloro-2-[[6-chloro-3-(4-oxocyclohexen-1-yl)-4-quinolyl]amino]benzoic acid]	> 5 °C	> 5 °C	> 5 °C	minimal effective concentration [2, 4]: 1 µM
O=C(O)c1cc(Cl)ccc1Nc1c(S(=O)(=O)N2CCSCC2)cnc2cc(F)c(Cl)cc12 [Compound 415A, 5-chloro-2-[(6-chloro-7-fluoro-3-thiomorpholinosulfonyl-4-quinolyl)amino]benzoic acid]	> 5 °C	> 5 °C	> 5 °C	minimal effective concentration [2, 4]: 1 µM
O=C(O)c1cc(Cl)ccc1Nc1c(S(=O)(=O)N2CCS(=O)(=O)CC2)cnc2ccc(Cl)cc12 [Compound 429A, 5-chloro-2-[[6-chloro-3-[(1,1-dioxo-1,4-thiazinan-4-yl)sulfonyl]-4-quinolyl]amino]benzoic acid]	> 5 °C	> 5 °C	> 5 °C	–
